Assay results published in PubChem BioAssay (NCI).
Several values for one entry are separate records, joined by “and”; a condition that tells them apart may be missing. Equal values may be shown once.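 All cell lines were grown in 96-well plates and treated with compound for 48 hours. The concentration for 50% growth inhibition is given as GI50. TGI: concentration producing complete growth inhibition.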

Tests used:
Assay in all cases: NCI anticancer screen, dose series, 48 h
[1] = tested on: CCRF-CEM leukemia
[2] = tested on: HT29 colon
[3] = tested on: KM12 colon
[4] = tested on: SR leukemia
[5] = tested on: SK-MEL-28 melanoma
[6] = tested on: NCI-H522 lung
[7] = tested on: HOP-62 NSCLC
[8] = tested on: OVCAR-8 ovarian
[9] = tested on: NCI/ADR-RES ovarian
[10] = tested on: ACHN renal

Row | Compound | GI50 [1] [µM] | TGI [1] [µM] | GI50 [2] [µM] | TGI [2] [µM] | GI50 [3] | TGI [3] [µM] | GI50 [4] | TGI [4] [µM] | GI50 [5] | TGI [5] [µM] | GI50 [6] [µM] | TGI [6] [µM] | GI50 [7] [µM] | TGI [7] [µM] | GI50 [8] | TGI [8] [µM] | GI50 [9] | TGI [9] [µM] | TGI [10] [µM] | GI50 [10]
1 | O=C(Nc1ccc2[nH]c(C(=O)N3CC(CCl)c4c3cc([N+](=O)[O-])c3ccccc43)cc2c1)c1cc2ccccc2o1 (stereo unspecified) | 66.4 | 377 | > 1100 | > 1100 | > 1100 µM | > 1100 | 35.2 µM | > 1100 | > 1100 µM | > 1100 | > 1100 | > 1100 | > 1100 | > 1100 | > 1100 µM | > 1100 | > 1100 µM | > 1100 | – | –
2 | O=C(NCCCCCCNC(=O)n1cc(F)c(=O)[nH]c1=O)NCCCOCCOCCOCCOCCOCCOCCOCCOCCOCCOCCOCCOCCOCCOCCOCCOCCOCCOCCOCCOCCOCCCNC(=O)C(O)C(O)C(OC1OC(CO)C(O)C(O)C1O)C(O)CO (stereo unspecified) | – | > 100 | – | > 100 | – | > 100 | – | > 100 | – | > 100 | – | > 100 | – | > 100 | – | > 100 | – | > 100 | > 100 | –
3 | C[n+]1c2ccccc2c(Nc2ccc(NS(=O)(=O)CCCCN=C(N)N)cc2)c2ccc(N)cc21 | 0.303 | > 35.9 | 1.02 | 84.5 | 3.5 µM | > 79.1 | 0.138 µM | > 26.3 | 11.2 µM | > 72.3 | 2.03 | 25.6 | 0.217 | 26.6 | 2.48 µM | > 100 | > 100 µM | > 100 | > 100 | 2.79 µM
4 | CCCCOC(=O)c1ccc(NC(=O)CCl)cc1 | 0.789 | 6.07 | 1.9 | 3.48 | 2.07 µM | 4.52 | 1.67 µM | 3.85 | 3.87 µM | 13.6 | 1.74 | 3.57 | 1.99 | 3.96 | 2.29 µM | 4.73 | 2.79 µM | 8.84 | – | –
5 | c1ccc(Nn2c(CCCCCCCCc3nnc(COc4ccccc4)n3Nc3ccccc3)nnc2COc2ccccc2)cc1 | 2.91 | – | 41.9 | > 300 | 5.7 µM and 2.69 µM | > 300 | 8.48 µM and 7.33 µM | > 300 | 22.9 µM and 57.1 µM | > 300 | – | > 91.8 | – | > 300 | 40 µM and 23.9 µM | > 300 | 11.5 µM and 20.6 µM | > 300 | > 300 | 2.89 µM and 5.83 µM
6 | CN[C@@H]1C[C@H]2O[C@@](C)([C@@H]1OC)n1c3ccccc3c3c4c(c5c6ccccc6n2c5c31)C(=O)N[C@H]4O | 0.0307 | > 10 | 0.0827 | 1.38 | 0.0395 µM | 1.07 | 0.0336 µM | 1.92 | 0.0845 µM | 1.48 | 0.103 | 0.878 | 0.0187 | 0.766 | 0.0885 µM | > 5.44 | 0.167 µM | 0.907 | > 10 | 0.036 µM
7 | COc1cc2c(cc1OC)-c1ccc3cc4c(cc3c1N(CCN(C)C)C2)OCO4 | 0.148 | 3.73 | 0.265 | 1.64 | 0.97 µM | 2.47 | 0.0524 µM | 2.63 | 3.04 µM | 17.3 | 0.188 | 1.56 | 0.373 | 3.97 | 0.51 µM | 3.44 | 10.9 µM | 45.6 | 3.1 | 0.588 µM
8 | CCCOC(=O)N[C@H]1CCc2cc(OC)c(OC)c(OC)c2-c2ccc(SC)c(=O)cc21 | < 0.01 | 19.7 | < 0.01 | > 39.4 | < 0.01 µM | > 38.6 | < 0.01 µM | > 56.3 | 10.1 µM | > 68.1 | < 0.01 | 7.25 | < 0.01 | > 100 | < 0.01 µM | > 100 | 0.0268 µM | > 100 | 15.7 | < 0.01 µM
9 | CN1CCN(C(=O)c2c(NC(=O)NS(=O)(=O)c3ccccc3)sc3c2CCCCC3)CC1 | 32.8 | > 100 | – | – | 29.3 µM | 80.1 | 27.5 µM | > 100 | – | – | 30.4 | 98.6 | – | – | 53.5 µM | > 100 | 34 µM | > 100 | > 100 | 30.7 µM
10 | COc1ccc2c(c1)c1nc3cc(C)c(C)cc3nc1n2CCN(C)C | 0.797 | 3.67 | 0.529 | 1.94 | 0.827 µM | 2.37 | 0.428 µM | 4.81 | 1.65 µM | 3.29 | 0.582 | 2.8 | 0.899 | 3.37 | – | – | 0.599 µM | 2.46 | 1.48 | 0.375 µM
11 | Cc1cc([N+](=O)[O-])ccc1NS(=O)(=O)c1cc(Cl)ccc1Cl | 3.47 | > 72.4 | 3.81 | > 100 | 4.04 µM | 34.5 | 4.52 µM | 27.6 | 5.17 µM | > 94.6 | 2.44 | 8.68 | 3.21 | 16.1 | 3.65 µM | > 100 | 3.07 µM | 17.5 | > 100 | 3.18 µM
12 | CCN(CC)CCCC(C)Nc1c2ccc(Cl)cc2nc2cc(OC)c(OC)cc12 (stereo unspecified) | 1.52 | 10.3 | 1.54 | 10.3 | 2.54 µM | 10.6 | 1.27 µM | 13.6 | 1.72 µM | 3.37 | 2.35 | 5.76 | – | – | 2.28 µM | 10.3 | 2.47 µM | 9.69 | 2.97 | 1.18 µM
13 | Cc1ccc(C(=O)/C(=C\c2ccc([N+](=O)[O-])cc2)S(=O)Cc2ccc(F)cc2)cc1 (stereo unspecified) | 0.752 | > 100 | – | – | 2.12 µM | 4.78 | 0.703 µM | 12.6 | 1.82 µM | 3.59 | 1.55 | 3.01 | 2.35 | 6.3 | 1.88 µM | 4.08 | 2.28 µM | 5.97 | 3.6 | 1.86 µM
